Test system: 454973-116-R2-J3-PDC complex spheroid viability
Assay: Anticancer human tumor 454973-116-R2-J3-PDC patient-derived pancreatic carcinoma cell line growth inhibition [POLQ]
Settings: for IC50: curve of first compound; for viability, T/C: stronger effect = lower value; active = viability on the fitted dose curve at most 10% of control; inactive = the rest
Outline: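 Three-cell-type spheroids modelling solid tumor plus stroma served as the readout system; POL inhibitors were tested individually and in combination, concentration ranges set by clinical Cmax where known.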
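Also: spheroids exposed to drugs for seven days before measurement.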
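For viability, T/C in this document: percent viability relative to DMSO vehicle control wells taken as 100%.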

CNCc1ccc(-c2[nH]c3cc(F)cc4c3c2CCNC4=O)cc1 + Cc1cccc(N(C)C(=O)C2C(O)CCN2c2nc(C)cc(C(F)(F)F)c2C#N)c1
> 10 µM: IC50 (second compound 0.0316 µM) | IC50 (second compound 0.1 µM) | IC50 (second compound 0.316 µM) | IC50 (second compound 1 µM) | IC50 (second compound 3.16 µM) | IC50 (second compound 10 µM)
inactive: viability, T/C (second compound 0.0316 µM, first compound 0.0316 µM) 110% | viability, T/C (second compound 0.0316 µM, first compound 0.1 µM) 96.1% | viability, T/C (second compound 0.0316 µM, first compound 0.316 µM) 101% | viability, T/C (second compound 0.0316 µM, first compound 1 µM) 103% | viability, T/C (second compound 0.0316 µM, first compound 3.16 µM) 101% | viability, T/C (second compound 0.0316 µM, first compound 10 µM) 79.1% | viability, T/C (second compound 0.1 µM, first compound 0.0316 µM) 94% | viability, T/C (second compound 0.1 µM, first compound 0.1 µM) 108% | viability, T/C (second compound 0.1 µM, first compound 0.316 µM) 97.8% | viability, T/C (second compound 0.1 µM, first compound 1 µM) 102% | viability, T/C (second compound 0.1 µM, first compound 3.16 µM) 99.4% | viability, T/C (second compound 0.1 µM, first compound 10 µM) 83% | viability, T/C (second compound 0.316 µM, first compound 0.0316 µM) 106% | viability, T/C (second compound 0.316 µM, first compound 0.1 µM) 102% | viability, T/C (second compound 0.316 µM, first compound 0.316 µM) 107% | viability, T/C (second compound 0.316 µM, first compound 1 µM) 98.9% | viability, T/C (second compound 0.316 µM, first compound 3.16 µM) 104% | viability, T/C (second compound 0.316 µM, first compound 10 µM) 85.8% | viability, T/C (second compound 1 µM, first compound 0.0316 µM) 108% | viability, T/C (second compound 1 µM, first compound 0.1 µM) 111% | viability, T/C (second compound 1 µM, first compound 0.316 µM) 103% | viability, T/C (second compound 1 µM, first compound 1 µM) 97.2% | viability, T/C (second compound 1 µM, first compound 3.16 µM) 100% | viability, T/C (second compound 1 µM, first compound 10 µM) 86.6% | viability, T/C (second compound 3.16 µM, first compound 0.0316 µM) 109% | viability, T/C (second compound 3.16 µM, first compound 0.1 µM) 105% | viability, T/C (second compound 3.16 µM, first compound 0.316 µM) 105% | viability, T/C (second compound 3.16 µM, first compound 1 µM) 106% | viability, T/C (second compound 3.16 µM, first compound 3.16 µM) 106% | viability, T/C (second compound 3.16 µM, first compound 10 µM) 82.9% | viability, T/C (second compound 10 µM, first compound 0.0316 µM) 118% | viability, T/C (second compound 10 µM, first compound 0.1 µM) 105% | viability, T/C (second compound 10 µM, first compound 0.316 µM) 101% | viability, T/C (second compound 10 µM, first compound 1 µM) 95.6% | viability, T/C (second compound 10 µM, first compound 3.16 µM) 106% | viability, T/C (second compound 10 µM, first compound 10 µM) 74.9%

Reference: PubChem BioAssay AID1963846 (Molecular Pharmacology Branch, DTP, NCI, 2024)
